Assay results reported in patent publication EP1439177B1, “Antiviral activity and resolution of 2-hydroxymethyl-5-(5-fluorocytosin-1-yl)-1,3-oxathiolane” (Emory University, priority 1991, dated 1992).
pEC50, pIC50: −log10 of the molar value. Like-named read-outs stand apart in the source and are kept apart here.

Legend:
[1] = Chronic oral treatment of rodents, toxicity; assay type: in vivo; conditions: oral doses of 85 mg/kg per day for at least two months
[2] = system: SIV; assay: microbe, parasite or virus in culture; conditions: Simian immunodeficiency virus
Experimental: (§1) Cell lines were obtained from either human donors, AIDS Research and Reference Reagent Program, NIH, Rockville, Maryland, ATCC, or the Red Cross. The CEM thymidine kinase deficient cells were prepared by sequential passage of CEM cells in the presence of 5-bromo-2'-deoxyuridine.

[3] = system: HIV-2; assay: microbe, parasite or virus in culture; conditions: Human immunodeficiency virus 2, PBMC
Experimental: as §1

[4] = system: FIV; assay: microbe, parasite or virus in culture; conditions: Feline immunodeficiency virus, CRFK
Experimental: as §1

[5] = system: HIV-1; assay: microbe, parasite or virus in culture
Experimental: as §1

[6] = in vitro; conditions: african green monkey, vero cells
[7] = system: other cell lines; assay: Toxicity to other cell lines; assay type: cell-based; conditions: concentrations up to 200 µM
[8] = system: HIV; assay: microbe, parasite or virus in culture; assay type: cell-based; conditions: Human immunodeficiency virus 1
[9] = in vivo; conditions: rat, plasma, iv
[10] = in vitro; conditions: human, cem cells
[11] = in vivo; conditions: rhesus monkey, 33.3 mg/kg; for clearance: CLT, I.V. 33.3 mg/kg
[12] = Growth inhibition of mitogen-stimulated uninfected human PBM cells, trypan blue exclusion; assay type: cell-based; conditions: human, pbm cells
[13] = system: peripheral human bone marrow cells; assay: Toxicity to peripheral human bone marrow cells; assay type: cell-based; conditions: concentrations up to 50 µM
[14] = system: HIV-1 (strain LAV); assay: microbe, parasite or virus in culture; assay type: cell-based; conditions: Human immunodeficiency virus 1, PBMC
From the text: It is often desirable to screen a number of racemic mixtures of nucleosides as a preliminary step to determine which warrant further resolution into enantiomerically enriched components and further evaluation of antiviral activity. The ability of nucleosides to inhibit HIV can be measured by various experimental techniques. The technique used herein, and described in detail below, measures the inhibition of viral replication in phytohemagglutinin (PHA) stimulated human peripheral blood mononuclear (PBM) cells infected with HIV-1 (strain LAV). The amount of virus produced is determined by measuring the virus-coded reverse transcriptase enzyme. The amount of enzyme produced is proportional to the amount of virus produced.
• A. Three-day-old phytohemagglutinin-stimulated PBM cells (10^6 cells/ml) from hepatitis B and HIV-1 seronegative healthy donors were infected with HIV-1 (strain LAV) at a concentration of about 100 times the 50% tissue culture infectious dose (TICD 50) per ml and cultured in the presence and absence of various concentrations of antiviral compounds. • B. Approximately one hour after infection, the medium, with the compound to be tested (2 times the final concentration in medium) or without compound, was added to the flasks (5 ml; final volume 10 ml). AZT was used as a positive control. • C. The cells were exposed to the virus (about 2 x 10^5 dpm/ml, as determined by reverse transcriptase assay) and then placed in a CO2 incubator. HIV-1 (strain LAV) was obtained from the Center for Disease Control, Atlanta, Georgia. The methods used for culturing the PBM cells, harvesting the virus and determining the reverse transcriptase activity were those described by McDougal et al. (J. Immun. Meth. 76, 171-183, 1985) and Spira et al. (J. Clin. Meth. 25, 97-99, 1987), except that fungizone was not included in the medium (see Schinazi, et al., Antimicrob. Agents Chemother. 32, 1784-1787 (1988); Id., 34:1061-1067 (1990)). • D. On day 6, the cells and supernatant were transferred to a 15 ml tube and centrifuged at about 900 g for 10 minutes. Five ml of supernatant were removed and the virus was concentrated by centrifugation at 40,000 rpm for 30 minutes (Beckman 70.1 Ti rotor). The solubilized virus pellet was processed for determination of the levels of reverse transcriptase. Results are expressed in dpm/ml of sampled supernatant. Virus from smaller volumes of supernatant (1 ml) can also be concentrated by centrifugation prior to solubilization and determination of reverse transcriptase levels.

[15] = system: human PBM cells; assay: Uptake of radiolabeled FTC into human PBM cells; assay type: in vitro ADME; conditions: 10 µM radiolabeled FTC, 2 to 24 hours; Figure 7
Experimental: All studies were conducted in duplicate.

## Nc1nc(=O)n([C@@H]2CS[C@H](CO)O2)cc1F (racemic) [(±)-FTC, (±)-β-D.L-2-hydroxymethyl-5-(5-fluorocytosin-1-yl)-1,3-oxathiolane]
[1]
  toxicity of chronic treatment: not toxic
[2]
  pEC50: 5.34
[2]; C8166
  pEC50: > 5.10
[3]
  pEC50: 8.42
[4]
  pEC50: ≥ 6.00
[5]; Human immunodeficiency virus 1, CEM (HTLV1118) NIH
  pEC50: 7.05
[5]; Human immunodeficiency virus 1, CEM (LAV-1)
  pEC50: 7.10
[5]; Human immunodeficiency virus 1, CEM-TK(-), CEM-TK^(-) (LAV-1)
  pEC50: 7.59
[5]; Human immunodeficiency virus 1, MT2 (HTLV1118)
  pEC50: 6.05
[5]; Human immunodeficiency virus 1, PBMC, PBMC (LAV-1)
  pEC50: 7.57
[6]
  CC50: > 100 µM
[7]
  toxicity: nontoxic
[8]
  pIC50: 6.28
[9]; 10 mg/kg
  clearance: 0.988 L/h/kg
  half-life: 45.4 min
[9]; 50 mg/kg
  MRT: 48 min
  clearance: 0.874 L/h/kg
  half-life: 48.9 min
[9]; 100 mg/kg
  clearance: 0.83 L/h/kg
  half-life: 58.1 min
[10]
  CC50: > 100 µM
[11]; iv
  Vd: 2 L/kg
[11]; iv, Mean of three monkeys
  clearance: 1.49 L/h/kg
[11]; iv, individual monkeys RUh, RMi, RJd
  clearance: 1.74 L/h/kg
[11]; po, F (bioavailability), P.O. 33.3 mg/kg, individual monkeys RUh, RMi, RJd
  bioavailability: 80%
[12]
  CC50 at 144 h: > 100 µM
[13]
  toxicity: nontoxic
[14]; read-out: Antiviral EC50
  pEC50: 8.00
[14]; read-out: activity in PBM cells
  pEC50: ~8.00
[15]
  uptake in human lymphocytes: readily taken up
